Reference: patent US20030032809A1, “Optimized procedures for the manufacture of paroxetine salts” (priority 2001, published 2003)

How the values were obtained:
[1] = prior-art statement; cited from earlier work
[2] = Solubility of paroxetine salts in water; format: physicochemical

(−)-trans-4R-(4′-fluorophenyl)-3S-[(3′,4′-methylenedioxyphenyl)oxymethyl]piperidine acetate [paroxetine acetate]
water solubility (in words, background) [1]: excellent water solubility profile
solubility ([2]; purified water, room temperature, purified paroxetine acetate): at least 1000 mg per one ml
solubility in water (in words) ([2]; water): highly soluble in water
